From patent publication US8901036B2, “Combinations of phenylsulfonylurea herbicides and safeners” (Bayer Cropscience AG, priority 1994, dated 2014)

Experiments:
[1] = test system: Corn; assay: Effect and selectivity in corn: phytotoxicity; format: in vivo; conditions: corn 4 leaves
Description: (§1) Various crop plants are grown in plastic pots with a diameter of 9 cm in a glasshouse to the stated stage and then treated with the particular herbicide or with a mixture of the herbicide and the safener by the post-emergence method. This entails the herbicide of the formula (A) and the compounds of the formula (B) being applied in the form of aqueous suspensions or emulsions with a water application rate which converts to 300 l/ha. 4 weeks after the treatment, the plants are assessed visually for every type of damage by the applied herbicides, taking particular account of the extent of persistent growth inhibition. The evaluation takes place in percentages (scale from 0 to 100%) compared with untreated controls.

[2] = test system: ECCG; assay: Effect and selectivity in corn: herbicidal effect; format: in vivo, Echinochloa crus-galli; conditions: start of tillering (4 to 5 leaves)
Description: as §1

[3] = test system: SOHA; assay: Effect and selectivity in corn: herbicidal effect; format: in vivo, Sorghum halepense; conditions: 3 leaves
Description: as §1

[4] = test system: SVFA; assay: Effect and selectivity in corn: herbicidal effect; format: in vivo
Description: as §1

[5] = test system: POAN; assay: Herbicidal activity on grasses, post-emergence; format: in vivo, Poa annua; conditions: no safener, 4-leaf stage
Description: as §1

[6] = test system: ALMY; assay: Herbicidal activity on grasses, post-emergence; format: in vivo, Alopecurus myosuroides; conditions: no safener, 4-leaf stage
Description: as §1

[7] = test system: Barley; assay: Phytotoxicity of herbicide/safener combinations in cereals, glasshouse post-emergence; format: in vivo; conditions: no safener, 4 weeks after treatment
Description: as §1

[8] = test system: Wheat; assay: as above; format: in vivo; conditions: no safener, 4 weeks after treatment
Description: as §1

[9] = test system: APSP; assay: Herbicidal activity on grasses, post-emergence; format: in vivo, Apera spica-venti; conditions: no safener, 4-leaf stage
Description: as §1

[10] = test system: AVFA; assay: Herbicidal activity on grasses, post-emergence; format: in vivo, Avena fatua; conditions: no safener, 4-leaf stage
Description: as §1

CCC(=O)Nc1ccc(C(=O)N(C)C)c(S(=O)(=O)NC(=O)Nc2nc(OC)cc(OC)n2)c1.[Na] [A9, N-(4,6-Dimethoxypyrimidin-2-ylaminocarbonyl)-2-(N,N-dimethylaminocarbonyl)-5-(N-propionylamino)benzenesulfonamide sodium salt]
Phytotoxicity or herbicidal effect in % Corn ([1]; dose 25 g AS/ha): 0% | Phytotoxicity or herbicidal effect in % Corn ([1]; dose 50 g AS/ha): 15% | Phytotoxicity or herbicidal effect in % Corn ([1]; dose 100 g AS/ha): 35% | Phytotoxicity or herbicidal effect in % ECCG ([2]; dose 25 g AS/ha): 99% | Phytotoxicity or herbicidal effect in % ECCG ([2]; dose 50 g AS/ha): 100% | Phytotoxicity or herbicidal effect in % SOHA ([3]; dose 25 g AS/ha): 98% | Phytotoxicity or herbicidal effect in % SOHA ([3]; dose 50 g AS/ha): 100%

COC(=O)Nc1ccc(C(=O)N(C)C)c(S(=O)(=O)NC(=O)Nc2nc(OC)cc(OC)n2)c1.[Na] [A7, N-(4,6-Dimethoxypyrimidin-2-ylaminocarbonyl)-2-(N,N-dimethylaminocarbonyl)-5-(N-methoxycarbonylamino)benzenesulfonamide sodium salt]
Phytotoxicity or herbicidal effect in % Corn ([1]; dose 25 g AS/ha): 25% | Phytotoxicity or herbicidal effect in % Corn ([1]; dose 50 g AS/ha): 40% | Phytotoxicity or herbicidal effect in % Corn ([1]; dose 100 g AS/ha): 60% | Phytotoxicity or herbicidal effect in % SVFA ([4]; dose 25 g AS/ha): 100% | Phytotoxicity or herbicidal effect in % SVFA ([4]; dose 50 g AS/ha): 100% | Phytotoxicity or herbicidal effect in % SVFA ([4]; dose 100 g AS/ha): 100% | Phytotoxicity or herbicidal effect in % ECCG ([2]; dose 25 g AS/ha): 60% | Phytotoxicity or herbicidal effect in % ECCG ([2]; dose 50 g AS/ha): 80% | Phytotoxicity or herbicidal effect in % ECCG ([2]; dose 100 g AS/ha): 90% | Phytotoxicity or herbicidal effect in % SOHA ([3]; dose 25 g AS/ha): 90% | Phytotoxicity or herbicidal effect in % SOHA ([3]; dose 50 g AS/ha): 90% | Phytotoxicity or herbicidal effect in % SOHA ([3]; dose 100 g AS/ha): 95%

COC(=O)c1ccc(CNS(C)(=O)=O)cc1S(=O)(=O)NC(=O)Nc1nc(OC)cc(OC)n1.[Na] [A10]
% effect on POAN ([5]; dose A 6 g AS/ha): 85% | % effect on POAN ([5]; dose A 12 g AS/ha): 99% | % effect on POAN ([5]; dose A 25 g AS/ha): 100% | % effect on ALMY ([6]; dose A 6 g AS/ha): 98% | % effect on ALMY ([6]; dose A 12 g AS/ha): 100% | % effect on ALMY ([6]; dose A 25 g AS/ha): 100% | Phytotoxicity Barley ([7]; dose A 6 g AS/ha): 5% | Phytotoxicity Barley ([7]; dose A 12 g AS/ha): 15% | Phytotoxicity Barley ([7]; dose A 25 g AS/ha): 55% | Phytotoxicity Wheat ([8]; dose A 6 g AS/ha): 15% | Phytotoxicity Wheat ([8]; dose A 12 g AS/ha): 25% | Phytotoxicity Wheat ([8]; dose A 25 g AS/ha): 30% | % effect on APSP ([9]; dose A 6 g AS/ha): 80% | % effect on APSP ([9]; dose A 12 g AS/ha): 97% | % effect on APSP ([9]; dose A 25 g AS/ha): 99% | % effect on AVFA ([10]; dose A 6 g AS/ha): 75% | % effect on AVFA ([10]; dose A 12 g AS/ha): 85% | % effect on AVFA ([10]; dose A 25 g AS/ha): 90%

COC(=O)Nc1ccc(C(=O)N(C)C)c(S(=O)(=O)NC(=O)Nc2nc(OC)cc(OC)n2)c1 [A13, N-(4,6-Dimethoxypyrimidin-2-ylaminocarbonyl)-2-(N,N-dimethylaminocarbonyl)-5-(N-methoxycarbonylamino)benzenesulfonamide]
Phytotoxicity or herbicidal effect in % Corn ([1]; dose 25 g AS/ha): 10% | Phytotoxicity or herbicidal effect in % Corn ([1]; dose 50 g AS/ha): 20% | Phytotoxicity or herbicidal effect in % Corn ([1]; dose 100 g AS/ha): 30% | Phytotoxicity or herbicidal effect in % SVFA ([4]; dose 25 g AS/ha): 90% | Phytotoxicity or herbicidal effect in % SVFA ([4]; dose 50 g AS/ha): 95% | Phytotoxicity or herbicidal effect in % ECCG ([2]; dose 25 g AS/ha): 99% | Phytotoxicity or herbicidal effect in % ECCG ([2]; dose 50 g AS/ha): 100% | Phytotoxicity or herbicidal effect in % SOHA ([3]; dose 25 g AS/ha): 90% | Phytotoxicity or herbicidal effect in % SOHA ([3]; dose 50 g AS/ha): 97%

CCC(=O)N(C)c1ccc(C(=O)OC)c(S(=O)(=O)NC(=O)Nc2nc(OC)cc(OC)n2)c1.[Na] [A4, N-(4,6-Dimethoxypyrimidin-2-ylaminocarbonyl)-2-methoxycarbonyl-5-(N-methyl-N-propionylamino)benzenesulfonamide sodium salt]
Phytotoxicity Barley ([7]; dose A 20 g AS/ha): 30% | Phytotoxicity Barley ([7]; dose A 40 g AS/ha): 80% | Phytotoxicity Wheat ([8]; dose A 20 g AS/ha): 15% | Phytotoxicity Wheat ([8]; dose A 40 g AS/ha): 40%

COc1cc(OC)nc(NC(=O)NS(=O)(=O)c2cc(NC=O)ccc2C(=O)N(C)C)n1 [A8, N-(4,6-Dimethoxypyrimidin-2-ylaminocarbonyl)-2-(N,N-dimethylaminocarbonyl)-5-(N-formylamino)benzenesulfonamide]
Phytotoxicity or herbicidal effect in % SVFA ([4]; dose 25 + 12 g AS/ha): 95% | Phytotoxicity or herbicidal effect in % SVFA ([4]; dose 50 + 25 g AS/ha): 100% | Phytotoxicity or herbicidal effect in % ECCG ([2]; dose 25 + 12 g AS/ha): 98% | Phytotoxicity or herbicidal effect in % ECCG ([2]; dose 50 + 25 g AS/ha): 100% | Phytotoxicity or herbicidal effect in % SOHA ([3]; dose 25 + 12 g AS/ha): 95% | Phytotoxicity or herbicidal effect in % SOHA ([3]; dose 50 + 25 g AS/ha): 98%

COC(=O)c1ccc(CN(C)C=O)cc1S(=O)(=O)NC(=O)Nc1nc(OC)cc(OC)n1.[Na] [A2, N-(4,6-Dimethoxypyrimidin-2-ylaminocarbonyl)-2-methoxycarbonyl-5-(N-formyl-N-methylaminomethyl)benzenesulfonamide sodium salt]
Phytotoxicity Barley ([7]; dose A 10 g AS/ha): 40% | Phytotoxicity Barley ([7]; dose A 20 g AS/ha): 80% | Phytotoxicity Wheat ([8]; dose A 10 g AS/ha): 20% | Phytotoxicity Wheat ([8]; dose A 20 g AS/ha): 60%
